Measurements reported in ChEMBL document CHEMBL1201862, “PubChem BioAssay data set” (2004).
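A five-concentration, 48-hour dose response in 96-well plates underlies each endpoint, interpolated linearly between surrounding concentrations. GI50 marks 50% less growth.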 The source made the active and inactive calls. No stated cut-off is given here; in the data, active = GI50 up to about 1.1 µM and inactive = higher.

Experiments:
Assay in all cases: NCI tumour cell line growth inhibition, 48 h
[1] = tested on: T47D
[2] = tested on: HL-60
[3] = tested on: MDA-MB-435
[4] = tested on: OVCAR-4
[5] = tested on: SK-MEL-2
[6] = tested on: NCI/ADR-RES
[7] = tested on: SF-295
[8] = tested on: IGROV-1
[9] = tested on: UACC-62
[10] = tested on: UO-31
[11] = tested on: RXF 393
[12] = tested on: UACC-257
[13] = tested on: SW-620
[14] = tested on: NCI-H23
[15] = tested on: SR
[16] = tested on: HOP-92
[17] = tested on: Malme-3M
[18] = tested on: NCI-H460
[19] = tested on: CAKI-1
[20] = tested on: SF-268
[21] = tested on: MDA-MB-231
[22] = tested on: SN12C
[23] = tested on: LOX IMVI
[24] = tested on: SK-MEL-28
[25] = tested on: HCT-116
[26] = tested on: SF-539
[27] = tested on: DU-145
[28] = tested on: EKVX
[29] = tested on: OVCAR-8
[30] = tested on: M14
[31] = tested on: BT-549
[32] = tested on: SNB-75
[33] = tested on: ACHN
[34] = tested on: OVCAR-5
[35] = tested on: MOLT-4
[36] = tested on: MCF7
[37] = tested on: TK-10
[38] = tested on: SK-OV-3
[39] = tested on: HCT-15
[40] = tested on: OVCAR-3
[41] = tested on: 786-0
[42] = tested on: PC-3
[43] = tested on: COLO 205
[44] = tested on: SK-MEL-5
[45] = tested on: HT-29
[46] = tested on: U-251
[47] = tested on: CCRF-CEM
[48] = tested on: K562
[49] = tested on: KM12
[50] = tested on: HOP-62
[51] = tested on: NCI-H226
[52] = tested on: MDA-N
[53] = tested on: RPMI-8226
[54] = tested on: Hs-578T
[55] = tested on: A549
[56] = tested on: SNB-19
[57] = tested on: NCI-H522
[58] = tested on: HCC 2998
[59] = tested on: A498

In the case of Cc1c(CCCl)c(=O)n2c([nH]c3ccccc32)c1C#N, the GI50 [1] is reported as 1.51 µM (inactive), the GI50 [2] is reported as 1.55 µM (inactive) and the GI50 [3] is reported as 1.83 µM (inactive). For the same compound, the GI50 [4] was 1.77 µM (inactive), the GI50 [5] was 2.79 µM (inactive) and the GI50 [6] was 1.27 µM (inactive). The GI50 [7] was 1.66 µM (inactive), the GI50 [8] was 1.77 µM (inactive) and the GI50 [9] was 1.34 µM (inactive). For the same compound, the GI50 [10] was 1.91 µM (inactive), the GI50 [11] was 1.76 µM (inactive) and the GI50 [12] was 2.73 µM (inactive). For the same compound, the GI50 [13] was 0.973 µM (active), the GI50 [14] was 1.53 µM (inactive) and the GI50 [15] was 0.527 µM (active). For the same compound, the GI50 [16] was 1.5 µM (inactive), the GI50 [17] was 0.678 µM (active) and the GI50 [18] was 1.72 µM (inactive). The GI50 [19] was 1.46 µM (inactive), the GI50 [20] was 1.95 µM (inactive) and the GI50 [21] was 1.52 µM (inactive). The GI50 [22] was 1.36 µM (inactive), the GI50 [23] was 0.619 µM (active) and the GI50 [24] was 1.87 µM (inactive). The GI50 [25] was 0.614 µM (active), the GI50 [26] was 1.48 µM (inactive) and the GI50 [27] was 2.21 µM (inactive). The GI50 [28] was 1.84 µM (inactive), the GI50 [29] was 1.6 µM (inactive) and the GI50 [30] was 1.6 µM (inactive). The GI50 [31] was 1.91 µM (inactive), the GI50 [32] was 1.45 µM (inactive) and the GI50 [33] was 1.43 µM (inactive). For the same compound, the GI50 [34] was 2.33 µM (inactive), the GI50 [35] was 0.237 µM (active) and the GI50 [36] was 1.61 µM (inactive). For the same compound, the GI50 [37] was 2.54 µM (inactive), the GI50 [38] was 2.1 µM (inactive) and the GI50 [39] was 1.57 µM. The GI50 [40] was 1.73 µM (inactive), the GI50 [41] was 1.51 µM (inactive) and the GI50 [42] was 1.45 µM (inactive). The GI50 [43] was 0.148 µM (active), the GI50 [44] was 1.42 µM (inactive) and the GI50 [45] was 1.6 µM (inactive). For the same compound, the GI50 [46] was 1.79 µM (inactive), the GI50 [47] was 0.402 µM (active) and the GI50 [48] was 1.34 µM (inactive). The GI50 [49] was 1.75 µM (inactive), the GI50 [50] was 1.82 µM (inactive) and the GI50 [51] was 2.02 µM (inactive). The GI50 [52] was 1.61 µM (inactive), the GI50 [53] was 1.3 µM (inactive) and the GI50 [54] was 3.22 µM (inactive). The GI50 [55] was 1.78 µM (inactive).
For Cn1c(NN)nc(-c2ccc([N+](=O)[O-])cc2)c(C#N)c1=O, the GI50 [1] was 15.8 µM (inactive), the GI50 [2] was 30.8 µM (inactive) and the GI50 [3] was 17.9 µM (inactive). The GI50 [4] was 15.6 µM (inactive), the GI50 [5] was 22.2 µM (inactive) and the GI50 [6] was 31 µM (inactive). The GI50 [7] was 16.1 µM (inactive), the GI50 [8] was 18.5 µM (inactive) and the GI50 [9] was 15.6 µM (inactive). The GI50 [10] was 16.3 µM (inactive), the GI50 [11] was 14.9 µM (inactive) and the GI50 [56] was 13.5 µM (inactive). For the same compound, the GI50 [12] was 15.7 µM (inactive), the GI50 [13] was 12.7 µM (inactive) and the GI50 [14] was 13.4 µM (inactive). The GI50 [15] was 18.7 µM (inactive), the GI50 [17] was 16.1 µM (inactive) and the GI50 [18] was 17.3 µM (inactive). The GI50 [19] was 26.2 µM (inactive), the GI50 [20] was 16 µM (inactive) and the GI50 [21] was 12.7 µM (inactive). The GI50 [22] was 15.6 µM (inactive), the GI50 [23] was 17.1 µM (inactive) and the GI50 [24] was 12.5 µM (inactive). For the same compound, the GI50 [25] was 12.8 µM (inactive), the GI50 [27] was 16.4 µM (inactive) and the GI50 [28] was 15.8 µM (inactive). The GI50 [29] was 19.2 µM (inactive), the GI50 [30] was 12.5 µM (inactive) and the GI50 [31] was 12.7 µM (inactive). The GI50 [32] was 20.4 µM (inactive), the GI50 [33] was 12.2 µM (inactive) and the GI50 [34] was 20.8 µM (inactive). The GI50 [36] was 16.6 µM (inactive), the GI50 [37] was 14.3 µM (inactive) and the GI50 [38] was 14.9 µM (inactive). The GI50 [39] was 16.4 µM, the GI50 [40] was 17.1 µM (inactive) and the GI50 [41] was 14.2 µM (inactive). The GI50 [42] was 15.3 µM (inactive), the GI50 [43] was 20 µM (inactive) and the GI50 [44] was 4.25 µM (inactive). For the same compound, the GI50 [45] was 12.8 µM (inactive), the GI50 [46] was 17.1 µM (inactive) and the GI50 [47] was 25.4 µM (inactive). For the same compound, the GI50 [57] was 16.4 µM (inactive), the GI50 [48] was 38.2 µM (inactive) and the GI50 [49] was 16.3 µM (inactive). The GI50 [50] was 14.1 µM (inactive), the GI50 [51] was 11 µM (inactive) and the GI50 [52] was 12.4 µM (inactive). The GI50 [53] was 29.1 µM (inactive), the GI50 [58] was 13.7 µM (inactive) and the GI50 [54] was 14.5 µM (inactive). The GI50 [55] was 19.8 µM (inactive).
With CCC1C(NC(=O)OC)C(=O)N1[C@@H](C)c1ccccc1 (stereo partly specified) the GI50 [1] was > 100 µM (inactive), the GI50 [3] was > 100 µM (inactive) and the GI50 [4] was > 100 µM (inactive). For the same compound, the GI50 [5] was > 100 µM (inactive), the GI50 [6] was > 100 µM (inactive) and the GI50 [7] was > 100 µM (inactive). The GI50 [8] was > 100 µM (inactive), the GI50 [9] was > 100 µM (inactive) and the GI50 [10] was > 100 µM (inactive). The GI50 [11] was > 100 µM (inactive), the GI50 [56] was > 100 µM (inactive) and the GI50 [12] was > 100 µM (inactive). The GI50 [13] was > 100 µM (inactive), the GI50 [14] was > 100 µM (inactive) and the GI50 [15] was > 100 µM (inactive). The GI50 [16] was > 100 µM (inactive), the GI50 [17] was > 100 µM (inactive) and the GI50 [18] was > 100 µM (inactive). For the same compound, the GI50 [19] was > 100 µM (inactive), the GI50 [20] was > 100 µM (inactive) and the GI50 [21] was > 100 µM (inactive). For the same compound, the GI50 [22] was > 100 µM (inactive), the GI50 [23] was > 100 µM (inactive) and the GI50 [24] was > 100 µM (inactive). For the same compound, the GI50 [25] was > 100 µM (inactive), the GI50 [26] was > 100 µM (inactive) and the GI50 [27] was > 100 µM (inactive). The GI50 [28] was > 100 µM (inactive), the GI50 [29] was > 100 µM (inactive) and the GI50 [30] was > 100 µM (inactive). For the same compound, the GI50 [31] was > 100 µM (inactive), the GI50 [32] was 82.6 µM (inactive) and the GI50 [33] was > 100 µM (inactive). For the same compound, the GI50 [59] was > 100 µM (inactive), the GI50 [34] was > 100 µM (inactive) and the GI50 [35] was > 100 µM (inactive). The GI50 [36] was > 100 µM (inactive), the GI50 [37] was > 100 µM (inactive) and the GI50 [38] was > 100 µM (inactive). The GI50 [39] was > 100 µM, the GI50 [40] was > 100 µM (inactive) and the GI50 [41] was > 100 µM (inactive). The GI50 [42] was > 100 µM (inactive), the GI50 [43] was > 100 µM (inactive) and the GI50 [44] was > 100 µM (inactive). The GI50 [45] was > 100 µM (inactive), the GI50 [46] was > 100 µM (inactive) and the GI50 [57] was > 100 µM (inactive). The GI50 [48] was > 100 µM (inactive), the GI50 [49] was > 100 µM (inactive) and the GI50 [50] was > 100 µM (inactive). For the same compound, the GI50 [51] was > 100 µM (inactive), the GI50 [52] was > 100 µM (inactive) and the GI50 [53] was > 100 µM (inactive). For the same compound, the GI50 [58] was > 100 µM (inactive) and the GI50 [54] was > 100 µM (inactive).
